This passage reports Plasma lipid level results from ChEMBL document CHEMBL1136343, “Naringenin derivatives as anti-atherogenic agents” (Bioorg Med Chem Lett, 2003).

Holding throughout (type): functional, organism-based
In assay [1] the test system is Oryctolagus cuniculus. As to the kind of experiment: Plasma HDL cholesterol level was analyzed after administration of 0.1%, wt/wt diet in high cholesterol-fed rabbits at 0 weeks.
Assay [2] relates to Oryctolagus cuniculus. The assay is described as follows: Total plasma cholesterol was analyzed after administration of 0.1%, wt/wt diet in high cholesterol-fed rabbits at 0 weeks.
Assay [3] deals with Oryctolagus cuniculus. The assay is described as follows: Total plasma cholesterol was analyzed after administration of 0.1%, wt/wt diet in high cholesterol-fed rabbits after 8 weeks.
Assay [4] relates to Oryctolagus cuniculus. As to the kind of experiment: Plasma triglyceride level was analyzed after administration of 0.1%, wt/wt diet in high cholesterol-fed rabbits after 8 weeks.
In assay [5] the test system is Oryctolagus cuniculus. As to the kind of experiment: Plasma HDL cholesterol level was analyzed after administration of 0.1%, wt/wt diet in high cholesterol-fed rabbits after 8 weeks.
Assay [6] deals with Oryctolagus cuniculus. As to the kind of experiment: Plasma triglyceride level was analyzed after administration of 0.1%, wt/wt diet in high cholesterol-fed rabbits after 0 weeks.

As for `CCCCCCCC/C=C/CCCCCCCC(=O)Oc1cc(O)c2c(c1)OC(c1ccc(O)cc1)CC2=O` (configuration not stated), the Plasma lipid level in assay [1] amounted to 31 mg/dL; in assay [2], 51 mg/dL; in assay [3], 1040 mg/dL; in assay [4], 105 mg/dL; in assay [5] it was 78 mg/dL; in assay [6], 51 mg/dL.

`CCCCCCCCCCCCCCCCC(=O)Oc1cc(O)c2c(c1)OC(c1ccc(O)cc1)CC2=O` (configuration not stated): the Plasma lipid level came to 34 mg/dL in assay [1]; 53 mg/dL in assay [2]; 1060 mg/dL in assay [3]; 85 mg/dL in assay [4]; 93 mg/dL in assay [5]; 50 mg/dL in assay [6].
